The structures appear in SMILES notation.

7 compounds from ChEMBL document CHEMBL5465560, “Selectivity Literature for EUbOPEN Chemogenomic Library” (2024) can be followed below.

For experiment [1], the target named is T1, cAMP-dependent protein kinase catalytic subunit PRKX (Homo sapiens) (UniProt P51817).
T1 sequence (whole entry): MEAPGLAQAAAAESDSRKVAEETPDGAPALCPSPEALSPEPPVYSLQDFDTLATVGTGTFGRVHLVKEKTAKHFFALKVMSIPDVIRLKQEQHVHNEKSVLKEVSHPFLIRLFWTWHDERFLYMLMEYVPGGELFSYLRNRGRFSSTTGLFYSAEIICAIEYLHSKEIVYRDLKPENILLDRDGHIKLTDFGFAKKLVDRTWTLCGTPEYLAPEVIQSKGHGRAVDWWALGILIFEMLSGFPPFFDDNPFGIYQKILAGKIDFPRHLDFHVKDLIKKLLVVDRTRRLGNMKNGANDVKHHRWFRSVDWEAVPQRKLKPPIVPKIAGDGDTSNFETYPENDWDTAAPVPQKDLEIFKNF
The experiment in a line: Selectivity interaction (KinomeScan (DiscoverX)) EUB0000607a PRKX. To be noted: at 10 µM.

In experiment [2] the target is T2, Mitogen-activated protein kinase 13 (Homo sapiens) (UniProt O15264).
T2 sequence (whole entry): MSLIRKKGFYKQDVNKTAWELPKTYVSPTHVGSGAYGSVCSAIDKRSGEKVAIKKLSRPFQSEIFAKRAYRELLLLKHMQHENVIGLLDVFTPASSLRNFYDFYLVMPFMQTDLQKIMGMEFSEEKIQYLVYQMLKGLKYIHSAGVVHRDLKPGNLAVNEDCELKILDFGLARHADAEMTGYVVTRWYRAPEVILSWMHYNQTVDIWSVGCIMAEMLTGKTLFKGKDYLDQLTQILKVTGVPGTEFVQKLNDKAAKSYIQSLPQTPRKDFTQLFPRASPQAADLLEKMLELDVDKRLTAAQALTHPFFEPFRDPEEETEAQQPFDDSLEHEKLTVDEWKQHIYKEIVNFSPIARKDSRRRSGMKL
Description: Selectivity interaction (KinomeScan (DiscoverX)) EUB0000607a MAPK13. To be noted: at 10 µM.

In experiment [3] the target is Serine/threonine-protein kinase PLK3 (Homo sapiens, UniProt Q9H4B4). Description: Selectivity interaction (SelectScreen profiling (Invitrogen)) EUB0000607a PLK3. The conditions noted are these: at 2 µM.
Experiment [4] deals with 5-hydroxytryptamine receptor 2B (Homo sapiens, UniProt P41595). The experiment in a line: Selectivity interaction (GPCR panel (PDSP screen)) EUB0001079a HTR2B. The conditions noted are these: at 10 µM.
The target in experiment [5] is Cyclin-dependent kinase 17 (Homo sapiens) (UniProt Q00537). The experiment in a line: Selectivity interaction (KinomeScan (DiscoverX)) EUB0001079a CDK17. The conditions noted are these: at 1 µM.
For experiment [6], the target named is T3, 5-hydroxytryptamine receptor 3A (Homo sapiens) (UniProt P46098).
T3 sequence (whole entry): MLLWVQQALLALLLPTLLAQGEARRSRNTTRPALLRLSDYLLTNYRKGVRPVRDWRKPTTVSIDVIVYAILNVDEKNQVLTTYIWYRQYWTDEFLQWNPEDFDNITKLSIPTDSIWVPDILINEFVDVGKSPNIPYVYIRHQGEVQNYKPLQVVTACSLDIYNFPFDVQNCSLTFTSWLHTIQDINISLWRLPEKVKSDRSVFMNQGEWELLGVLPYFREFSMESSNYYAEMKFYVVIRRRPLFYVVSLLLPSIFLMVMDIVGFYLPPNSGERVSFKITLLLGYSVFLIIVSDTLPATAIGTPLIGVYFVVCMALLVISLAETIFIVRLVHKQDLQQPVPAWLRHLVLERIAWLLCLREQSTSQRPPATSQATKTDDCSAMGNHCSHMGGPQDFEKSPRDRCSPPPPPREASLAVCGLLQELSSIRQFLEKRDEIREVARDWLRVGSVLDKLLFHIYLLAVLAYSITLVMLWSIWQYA
The experiment in a line: Selectivity interaction (Panel of kinases, GPCRs, ion channels and transporters (enzymatic assay)) EUB0000266bCl HTR3A.

Experiment [7] concerns the target Rho-associated protein kinase 2 (Homo sapiens, UniProt O75116). Description: Selectivity interaction (ActivX KiNativ screen (ex vivo kinase selectivity in human PBMCs)) EUB0001619a ROCK2. The format is cell-based. To be noted: PBMC, at 1 µM.
The target of experiment [8] is Cyclin-dependent kinase 18 (Homo sapiens) (UniProt Q07002). Description: Selectivity interaction (ActivX KiNativ screen (kinase selectivity in THP-1 cell lysates)) EUB0000639a CDK18. It counts as subcellular. The conditions noted are these: lysate, at 5 µM.
Experiment [9] addresses Serine/threonine-protein kinase Chk2 (Homo sapiens) (UniProt O96017). The experiment in a line: Selectivity interaction (ActivX KiNativ screen (kinase selectivity in THP-1 cell lysates)) EUB0000639a CHEK2. It counts as subcellular. The conditions noted are these: lysate, at 0.04 µM.
The target in experiment [10] is Glycogen synthase kinase-3 beta (Homo sapiens, UniProt P49841). Description: Selectivity interaction (ActivX KiNativ screen (kinase selectivity in THP-1 cell lysates)) EUB0000639a GSK3B. It counts as subcellular. To be noted: lysate.
The target of experiment [11] is Ephrin type-A receptor 2 (Homo sapiens) (UniProt P29317). The conditions noted are these: at 10 µM.
Experiment [12] addresses T4, Serine/threonine-protein kinase D1 (Homo sapiens) (UniProt Q15139).
T4 sequence (whole entry): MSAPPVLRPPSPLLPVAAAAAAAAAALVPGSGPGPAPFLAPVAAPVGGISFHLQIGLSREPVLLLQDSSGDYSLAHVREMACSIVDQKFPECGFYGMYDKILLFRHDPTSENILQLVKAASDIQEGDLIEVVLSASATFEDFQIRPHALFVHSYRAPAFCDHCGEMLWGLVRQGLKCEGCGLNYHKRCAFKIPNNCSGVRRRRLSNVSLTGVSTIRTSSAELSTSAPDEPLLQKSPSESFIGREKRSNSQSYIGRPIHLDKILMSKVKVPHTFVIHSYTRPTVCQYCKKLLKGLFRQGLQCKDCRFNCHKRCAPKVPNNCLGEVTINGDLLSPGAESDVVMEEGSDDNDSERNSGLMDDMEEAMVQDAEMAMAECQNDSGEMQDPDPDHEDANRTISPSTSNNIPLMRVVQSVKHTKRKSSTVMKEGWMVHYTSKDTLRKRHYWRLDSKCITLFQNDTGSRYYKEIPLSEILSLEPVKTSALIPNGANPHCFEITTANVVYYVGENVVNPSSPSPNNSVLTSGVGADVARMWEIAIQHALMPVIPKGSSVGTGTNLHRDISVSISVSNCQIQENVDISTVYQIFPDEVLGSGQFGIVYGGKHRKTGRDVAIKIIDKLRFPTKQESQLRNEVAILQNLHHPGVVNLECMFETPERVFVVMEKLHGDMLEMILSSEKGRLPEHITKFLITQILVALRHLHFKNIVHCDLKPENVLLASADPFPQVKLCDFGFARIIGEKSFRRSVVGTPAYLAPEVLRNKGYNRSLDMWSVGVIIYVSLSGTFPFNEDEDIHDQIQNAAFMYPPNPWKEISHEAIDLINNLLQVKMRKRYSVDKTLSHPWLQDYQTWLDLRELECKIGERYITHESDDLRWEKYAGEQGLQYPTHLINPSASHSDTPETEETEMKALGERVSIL
Description: Selectivity interaction (KinomeScan (DiscoverX)) EUB0000618a PRKD1. To be noted: at 10 µM.

Glycogen synthase kinase-3 beta, sequence (P49841 whole entry, looked up): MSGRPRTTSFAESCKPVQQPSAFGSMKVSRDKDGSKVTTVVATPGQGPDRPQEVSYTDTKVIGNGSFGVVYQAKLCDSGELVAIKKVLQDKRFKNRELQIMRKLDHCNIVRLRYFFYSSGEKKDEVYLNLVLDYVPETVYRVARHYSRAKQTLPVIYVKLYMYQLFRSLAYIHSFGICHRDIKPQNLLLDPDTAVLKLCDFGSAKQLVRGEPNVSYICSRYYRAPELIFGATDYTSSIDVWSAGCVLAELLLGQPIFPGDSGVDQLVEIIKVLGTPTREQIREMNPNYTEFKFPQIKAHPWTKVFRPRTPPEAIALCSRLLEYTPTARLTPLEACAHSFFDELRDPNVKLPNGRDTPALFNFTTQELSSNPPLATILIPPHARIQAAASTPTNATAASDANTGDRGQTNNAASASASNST
Serine/threonine-protein kinase PLK3, sequence (Q9H4B4 whole entry, looked up): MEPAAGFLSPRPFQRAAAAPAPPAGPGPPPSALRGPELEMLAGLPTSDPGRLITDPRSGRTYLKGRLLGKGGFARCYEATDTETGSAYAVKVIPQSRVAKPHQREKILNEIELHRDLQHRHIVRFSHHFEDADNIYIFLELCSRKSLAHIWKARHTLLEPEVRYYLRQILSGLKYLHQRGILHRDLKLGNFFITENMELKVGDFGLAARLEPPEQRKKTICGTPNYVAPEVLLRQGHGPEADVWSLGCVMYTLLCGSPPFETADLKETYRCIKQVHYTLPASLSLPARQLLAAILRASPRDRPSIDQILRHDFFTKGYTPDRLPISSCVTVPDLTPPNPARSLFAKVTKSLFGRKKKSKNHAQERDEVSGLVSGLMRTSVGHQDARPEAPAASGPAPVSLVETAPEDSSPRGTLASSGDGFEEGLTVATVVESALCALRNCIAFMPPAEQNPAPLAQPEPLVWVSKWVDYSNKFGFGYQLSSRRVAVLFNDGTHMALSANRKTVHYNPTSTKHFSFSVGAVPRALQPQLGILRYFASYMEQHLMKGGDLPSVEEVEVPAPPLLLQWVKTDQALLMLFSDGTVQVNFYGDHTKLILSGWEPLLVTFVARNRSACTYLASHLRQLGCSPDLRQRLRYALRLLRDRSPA
Cyclin-dependent kinase 17 (Homo sapiens), sequence (Q00537 whole entry, looked up): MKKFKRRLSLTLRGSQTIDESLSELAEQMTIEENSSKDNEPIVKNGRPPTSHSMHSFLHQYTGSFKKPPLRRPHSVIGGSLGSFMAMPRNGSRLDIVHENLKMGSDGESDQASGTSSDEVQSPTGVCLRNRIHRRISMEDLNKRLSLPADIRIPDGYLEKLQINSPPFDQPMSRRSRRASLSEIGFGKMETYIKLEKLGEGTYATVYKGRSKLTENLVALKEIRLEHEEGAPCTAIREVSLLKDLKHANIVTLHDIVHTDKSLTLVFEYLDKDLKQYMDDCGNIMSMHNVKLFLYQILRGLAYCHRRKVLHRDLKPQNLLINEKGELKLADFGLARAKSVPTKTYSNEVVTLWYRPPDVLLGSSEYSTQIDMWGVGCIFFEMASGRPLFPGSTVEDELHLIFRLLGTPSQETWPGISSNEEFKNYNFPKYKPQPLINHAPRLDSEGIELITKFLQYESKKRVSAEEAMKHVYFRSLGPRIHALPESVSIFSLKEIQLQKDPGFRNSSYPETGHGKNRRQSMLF
Ephrin type-A receptor 2 (Homo sapiens), sequence (P29317 whole entry): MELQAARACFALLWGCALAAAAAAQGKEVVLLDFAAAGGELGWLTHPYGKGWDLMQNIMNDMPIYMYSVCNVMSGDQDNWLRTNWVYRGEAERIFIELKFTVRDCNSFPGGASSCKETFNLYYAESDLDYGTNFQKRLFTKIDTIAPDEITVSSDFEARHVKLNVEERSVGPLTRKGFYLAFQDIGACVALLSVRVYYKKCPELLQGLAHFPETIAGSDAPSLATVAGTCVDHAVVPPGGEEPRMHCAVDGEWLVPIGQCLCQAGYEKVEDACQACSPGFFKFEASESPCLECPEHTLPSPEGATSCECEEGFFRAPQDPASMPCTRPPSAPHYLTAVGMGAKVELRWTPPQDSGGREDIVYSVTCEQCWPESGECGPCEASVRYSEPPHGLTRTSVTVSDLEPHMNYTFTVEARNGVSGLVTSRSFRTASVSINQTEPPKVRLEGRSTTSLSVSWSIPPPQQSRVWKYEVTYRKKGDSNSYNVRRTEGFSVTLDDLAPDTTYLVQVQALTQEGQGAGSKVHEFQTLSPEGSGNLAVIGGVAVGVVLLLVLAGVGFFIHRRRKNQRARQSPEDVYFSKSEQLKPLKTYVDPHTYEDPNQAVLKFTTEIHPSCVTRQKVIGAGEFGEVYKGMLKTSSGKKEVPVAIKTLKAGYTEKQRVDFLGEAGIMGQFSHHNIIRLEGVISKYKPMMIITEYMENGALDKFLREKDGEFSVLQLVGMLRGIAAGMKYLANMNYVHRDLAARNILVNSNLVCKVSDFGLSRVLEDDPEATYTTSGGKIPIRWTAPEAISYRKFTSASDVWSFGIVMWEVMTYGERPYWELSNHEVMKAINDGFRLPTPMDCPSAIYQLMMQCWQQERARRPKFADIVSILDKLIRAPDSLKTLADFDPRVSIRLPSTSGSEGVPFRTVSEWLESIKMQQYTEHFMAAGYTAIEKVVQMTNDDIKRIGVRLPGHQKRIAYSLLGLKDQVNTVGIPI
5-hydroxytryptamine receptor 2B, sequence (P41595 whole entry): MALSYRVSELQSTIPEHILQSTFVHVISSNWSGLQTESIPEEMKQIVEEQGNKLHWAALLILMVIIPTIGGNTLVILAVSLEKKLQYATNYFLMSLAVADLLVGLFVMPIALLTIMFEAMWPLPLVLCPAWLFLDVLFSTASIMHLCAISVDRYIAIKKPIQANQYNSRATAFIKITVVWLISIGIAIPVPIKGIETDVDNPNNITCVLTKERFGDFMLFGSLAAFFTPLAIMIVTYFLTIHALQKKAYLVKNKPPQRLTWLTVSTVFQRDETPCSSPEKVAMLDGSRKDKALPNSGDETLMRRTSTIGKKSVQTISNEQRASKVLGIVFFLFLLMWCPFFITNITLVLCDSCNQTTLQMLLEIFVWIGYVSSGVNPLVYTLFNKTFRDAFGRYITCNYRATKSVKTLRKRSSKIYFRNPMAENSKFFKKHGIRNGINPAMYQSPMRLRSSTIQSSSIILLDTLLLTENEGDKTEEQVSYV
Serine/threonine-protein kinase Chk2 (Homo sapiens), sequence (O96017 whole entry): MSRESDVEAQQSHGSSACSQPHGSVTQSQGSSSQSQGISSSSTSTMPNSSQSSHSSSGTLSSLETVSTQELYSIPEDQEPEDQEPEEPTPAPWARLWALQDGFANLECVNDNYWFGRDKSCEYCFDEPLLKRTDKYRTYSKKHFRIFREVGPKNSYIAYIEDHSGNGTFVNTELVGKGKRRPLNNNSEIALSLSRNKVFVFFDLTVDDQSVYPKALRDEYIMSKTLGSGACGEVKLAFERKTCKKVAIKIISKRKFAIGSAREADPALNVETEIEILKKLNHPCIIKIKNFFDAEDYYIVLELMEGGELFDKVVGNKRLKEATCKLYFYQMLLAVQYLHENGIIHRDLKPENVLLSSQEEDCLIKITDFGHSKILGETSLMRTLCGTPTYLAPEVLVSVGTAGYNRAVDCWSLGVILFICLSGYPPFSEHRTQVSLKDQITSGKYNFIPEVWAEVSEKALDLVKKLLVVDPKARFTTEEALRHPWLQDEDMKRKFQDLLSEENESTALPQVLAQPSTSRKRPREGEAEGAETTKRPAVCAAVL
Cyclin-dependent kinase 18 (Homo sapiens), sequence (Q07002 whole entry): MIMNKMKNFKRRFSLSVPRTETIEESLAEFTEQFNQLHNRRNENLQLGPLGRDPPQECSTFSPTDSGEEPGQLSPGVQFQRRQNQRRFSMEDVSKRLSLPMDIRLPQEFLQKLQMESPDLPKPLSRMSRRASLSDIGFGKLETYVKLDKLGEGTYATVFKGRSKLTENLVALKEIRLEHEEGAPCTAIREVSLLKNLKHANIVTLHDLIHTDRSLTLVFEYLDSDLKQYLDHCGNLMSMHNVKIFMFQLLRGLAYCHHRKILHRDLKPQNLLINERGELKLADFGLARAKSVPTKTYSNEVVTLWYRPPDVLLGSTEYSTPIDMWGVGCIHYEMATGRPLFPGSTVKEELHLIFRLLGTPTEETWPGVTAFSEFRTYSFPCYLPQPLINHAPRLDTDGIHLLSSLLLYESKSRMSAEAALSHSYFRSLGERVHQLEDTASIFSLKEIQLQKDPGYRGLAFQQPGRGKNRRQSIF

As for `CNC(=O)Nc1ccc(-c2nc(N3CC4CCC(C3)O4)c3cnn(C4CCC5(CC4)OCCO5)c3n2)cc1`, the % of control is 100% in experiment [1] and 16% in [2]. Further, the % of inhibition in [3] was -11%.
In the case of `Nc1cnc(N2CCc3cc(S(=O)(=O)Nc4c(F)cc(Cl)cc4F)cc(N4CCCC4=O)c32)nc1` [TP-020n], the % of inhibition in [4] stood at 12.9%. Besides, the % of control in experiment [5] worked out at 100%.
`CCn1c(-c2nc3cc(C(=O)N4CCCC(N)C4)ccc3n2C)cc2ccccc21` (stereo unspecified) came in with a pXC50 in [6] of 5.6 M.
As to `N#Cc1cccc(-c2c[nH]c3ncnc(N4CCOCC4)c23)c1`, the % of inhibition in [7] was determined as 2%.
Take `CC[C@@H]1[C@H](F)C(=O)N[C@@H]1COc1nccc2cc(C(N)=O)c(OC)cc12` [ZIMLOVISERTIB]: the % of inhibition in [8] was 6.5%; in experiment [9] it was -4.5%; in experiment [10] (at 0.01 µM) it was -3.7%; in experiment [10] (at 0.04 µM), 1.4%; in experiment [10] (at 0.2 µM), 2.2%; in experiment [10] (at 1 µM) it was 2%. For the same compound, the % of inhibition in experiment [10] (at 5 µM) was -4.4%.
In experiment [11], `CCN(CC)CCCCNc1ncc2cc(-c3cc(OC)cc(OC)c3)c(NC(=O)NC(C)(C)C)nc2n1` gave a % of control of 100%.
In turn, `O[C@H]1CC[C@H](Nc2ncc3nc(Nc4c(F)cc(F)cc4F)n([C@H]4CCOC4)c3n2)CC1` returned a % of control in experiment [12] of 46%.
